Experimental data reported in US4877870A, “Process for producing 10-hydroxyanthracyclines” (Kirin Beer Kabushiki Kaisha, priority 1986, dated 1989).

Settings: ICR mice, intravenous injection

CC[C@@]1(O)C[C@H](O[C@H]2C[C@H](N3CCOCC3)[C@H](O)[C@H](C)O2)c2c(O)c3c(c(O)c2[C@H]1O)C(=O)c1cccc(O)c1C3=O [M-R20X2, 3'-deamino-3'-(4-morpholinyl)-13-deoxo-10-hydroxycarminomycin]
LD50: 3.55 mg/kg
